Source: patent publication US20240409536A1, “COMPOUNDS AND METHODS FOR MODULATING SPLICING” (REMIX THERAPEUTICS INC., priority 2021, published 2024)
Where two headings read alike, the source gives them in different places.

Columns and labels:
HTT mRNA [1] = test: Gene panel canonical junction qPCR assay, HTT CJ mRNA decrease; format: cell-based, human; conditions: Homo sapiens
Method: (§1) Compounds described herein were used to modulate RNA transcript abundance in cells. The expression of a target mRNA was measured by detecting the formation of an exon-exon junction in the canonical transcript (CJ). A compound mediated exon-inclusion event was detected by observing an increase in formation of a new junction with an alternative exon (AJ). Real-time qPCR assays were used to detect these splicing switches and interrogate the potency of various compounds towards different target genes. A high-throughput real time quantitative PCR (RT-qPCR) assay was developed to measure these two isoforms of the mRNA (CJ and AJ) for exemplary genes, such as HTT, SMN2, and MYB, together with a control housekeeping gene, GAPDH or GUSB or PPIA, used for normalization. Briefly, the A673 or K562 cell line was treated with various compounds described herein (e.g., compounds of Formula (I), (I), or (III)). After treatment, the levels of the HTT, MYB, or SMN2 mRNA targets were determined from each sample of cell lysate by cDNA synthesis followed by qPCR.
(§2) The data analysis was performed by first determining the ΔCt vs the housekeeper gene. This ΔCt was then normalized against the DMSO control (ΔΔCt) and converted to RQ (relative quantification) using the 2^(−ΔΔCt) equation. The RQ were then converted to a percentage response by arbitrarily setting an assay window of 3.5 and 4.0 ΔCt for HTT-CJ and MYB-CJ respectively and an assay window of 9 and 3 ΔCt for HTT-AJ and MYB-AJ in 96 well format (50,000 K562 cells/well and 15,000 A673 cells per well) and an assay window of 3 and 4 ΔCt for HTT-CJ and MYB-CJ respectively and an assay window of 5 and 3 ΔCt for HTT-AJ and MYB-AJ respectively in 384 well format (8,000 K562 cells/well example). […] The percentage response was then fitted to the 4 parametric logistic equation to evaluate the concentration dependence of compound treatment. The increase in AJ mRNA is reported as AC50 (compound concentration having […] in AJ increase) while the decrease in CJ mRNA levels is reported as IC50 (compound concentration having 50) response in CJ decrease).
(§3) Additional studies were carried out for a larger panel of genes using the protocol provided above. The junction between flanking upstream and downstream exons was used to design canonical junction qPCR assays. At least one of the forward primer, reverse primer or the CY5-labeled 5′ nuclease probe (with 3′ quencher such as ZEN/Iowa Black FQ) was designed to overlap with the exon junction to capture the CJ mRNA transcript. BLAST was used to confirm the specificity of the probeset and parameters such as melting temperature, GC content, amplicon size, and primer dimer formation are considered during their design. Data for the decrease in CJ mRNA levels for four exemplary genes (HTT, SMN2, MYB, and Target C) analyzed in this panel are reported as IC50 (compound concentration having […] in CJ decrease).
(§4) A summary of the results from the panel is illustrated in Tables 5A and 51B, wherein “A” represents an IC50 of less than 100 nM; “B” represents an IC50 of between 100 nM and 1 μM; and “C” represents an IC50 of between 1 μM and 10 μM; and “D” represents an IC50 of greater than 10 μM.

MYB mRNA [2] = test: Gene panel canonical junction qPCR assay, MYB CJ mRNA decrease; format: cell-based, human; conditions: Homo sapiens
Method: as §1, §2, §3, §4

SMN2 mRNA = test: Gene panel canonical junction qPCR assay, SMN2 CJ mRNA decrease; format: cell-based, human; conditions: Homo sapiens
Method: as §1, §2, §3, §4

Target C mRNA = test: Gene panel canonical junction qPCR assay, Target C CJ mRNA decrease; format: cell-based; conditions: Homo sapiens, decrease in CJ mRNA levels, read-out: Target C IC50
Method: as §1, §2, §3, §4

HTT mRNA [3] = test: Splicing RT-qPCR assay, HTT canonical (CJ) and alternative (AJ) junction mRNA; format: cell-based; conditions: Homo sapiens, A673 or K562 cells, 24 hours
Method: as §1
(§5) • Cells-to-CT 1-step kit: ThermoFisher A25602, Cells-to-CT lysis reagent: ThermoFisher 4391851C, TaqMan™ Fast Virus 1-Step Master Mix: ThermoFisher 4444436 • GAPDH: VIC-PL, ThermoFisher 4326317E (Assay: Hs99999905_ml)—used for K562/suspension cell lines • GUSB: VIC-PL, ThermoFisher 4326320E (Assay: Hs99999908_ml)—used for K562/suspension cell lines • PPIA: VIC-PL, ThermoFisher 4326316E (Assay: Hs99999904_ml)—used for A673/adherent cell lines
(§6) The A673 cell line was cultured in DMEM with 10% FBS. Cells were diluted with full growth media and plated in a 96-well plate (15,000 cells in 100 ul media per well). The plate was incubated at 37° C. with 5% CO2 for 24 hours to allow cells to adhere. An 11-point 3-fold serial dilution of the compounds was made in DMSO then diluted in media in an intermediate plate. Compounds were transferred from the intermediate plate to the cell plate with the top dose at a final concentration of 10 uM in the well. Final DMSO concentration was kept at or below 0.25%. The cell plate was returned to the incubator at 37° C. with 5% CO2 for an additional 24 hours.
(§7) The K562 cell line was cultured in IMDM with 10% FBS. For K562, cells were diluted with full growth media and plated in either a 96-well plate (50,000 cells in 50 uL media per well) or a 384-well plate (8,000-40,000 cells in 45 uL media per well). An 11-point 3-fold serial dilution of the compounds were made in DMSO then diluted in media in an intermediate plate. Compound was transferred from the intermediate plate to the cell plate with the top dose at a final concentration of 10 uM in the well. Final DMSO concentration was kept at or below 0.25%. Final volume was 100 uL for 96-well plate and 50 uL for 384-well plate. The cell plate was then placed in an incubator at 37° C. with 5% CO2 for 24 hours.
(§8) The cells were then gently washed with 50 uL-100 uL cold PBS before proceeding to addition of lysis buffer. 30 uL-50 uL of room temperature lysis buffer with DNAse I (and optionally RNAsin) was added to each well. Cells were shaken/mixed thoroughly at room temperature for 5-10 minutes for lysis to take place and then 3 uL-5 uL of room temperature stop solution was added and wells were shaken/mixed again. After 2-5 minutes, the cell lysate plate was transferred to ice for RT-qPCR reaction setup. The lysates could also be frozen at −80° C. for later use.
(§9) In some cases, a direct lysis buffer was used. An appropriate volume of 3×lysis buffer (10 mM Tris, 150 mM NaCl, 1.5%-2.5% Igepal and 0.1-1 U/uL RNAsin, pH 7.4) was directly added to either K562 or A673 cells in media and mixed by pipetting 3 times. The plates were then incubated at room temperature with shaking/rocking for 20-50 minutes to allow for lysis to take place. After this time, the cell lysate plate was transferred to ice to set up for the RT-qPCR reactions. The lysates could also be frozen at −80° C. for later use. […]

MYB mRNA [4] = test: Splicing RT-qPCR assay, MYB canonical (CJ) and alternative (AJ) junction mRNA; format: cell-based; conditions: Homo sapiens, A673 or K562 cells, 24 hours
Method: as §1, §5, §6, §7, §8, §9

[5] = decrease in CJ mRNA levels, read-out: HTT IC50
[6] = decrease in CJ mRNA levels, read-out: MYB IC50
[7] = decrease in CJ mRNA levels, read-out: SMN2 IC50
[8] = decrease in canonical junction mRNA
[9] = increase in alternative junction mRNA

| IC50 (HTT mRNA [1]; [5]) [µM] | IC50 (MYB mRNA [2]; [6]) [µM] | IC50 (SMN2 mRNA; [7]) [µM] | IC50 (Target C mRNA) [µM] | SMILES | further results |
| --- | --- | --- | --- | --- | --- |
| 0.1 to 1 | < 0.1 | > 10 | – | Cc1cn2cc(NC(=O)c3sc([C@H]4CCN[C@H](C)C4)cc3F)cc(C(F)(F)F)c2n1 [Compound 669] | – |
| > 10 | 1 to 10 | > 10 | 1 to 10 | Cc1cn2cc(NC(=O)c3sc(N4CCN5CCCC5C4)cc3F)cc(F)c2n1 (stereo not shown) [Compound 612] | – |
| > 10 | 0.1 to 1 | > 10 | 1 to 10 | CC1CC(c2cc(F)c(C(=O)Nc3ccc4cn(C)nc4c3)s2)CCN1 (stereo not shown) [Compound 624] | – |
| < 0.1 | < 0.1 | 0.1 to 1 | 0.1 to 1 | Cc1cn2nc(NC(=O)c3sc([C@@H]4CCN[C@@H](C)C4)cc3F)cc(C)c2n1 [Compound 579] | – |
| 1 to 10 | 0.1 to 1 | – | 1 to 10 | Cc1cn2cc(NC(=O)c3sc(N4CCNC(C)C4)cc3F)cc(F)c2n1 (stereo not shown) [Compound 601] | – |
| 0.1 to 1 | < 0.1 | 0.1 to 1 | 0.1 to 1 | CCN1CCC(c2cc(F)c(C(=O)Nc3cc(F)c4nc(C)cn4c3)s2)CC1 [Compound 619] | – |
| – | – | – | – | Cc1cn2cc(NC(=O)c3ccc(N4CCN(C)C(C)C4)c4ccnnc34)cc(F)c2n1 (stereo not shown) [Compound 129] | IC50 (HTT mRNA [3]; [8]): 1 to 10 µM; AC50 (HTT mRNA [3]; [9]): 1 to 10 µM; IC50 (MYB mRNA [4]; [8]): 0.1 to 1 µM; AC50 (MYB mRNA [4]; [9]): 0.1 to 1 µM; IC50 (HTT mRNA [1]; canonical junction qPCR, read-out: HTT IC50 (decrease in CJ mRNA levels)): 1 to 10 µM; IC50 (MYB mRNA [2]; canonical junction qPCR, read-out: MYB IC50 (decrease in CJ mRNA levels)): 0.1 to 1 µM; IC50 (SMN2 mRNA; canonical junction qPCR, read-out: SMN2 IC50 (decrease in CJ mRNA levels)): < 0.1 µM |
| 0.1 to 1 | < 0.1 | 1 to 10 | 1 to 10 | Cc1cn2nc(NC(=O)c3sc([C@H]4CCN[C@H](C)C4)cc3F)cc(C)c2n1 [Compound 578] | – |
| > 10 | 1 to 10 | > 10 | > 10 | Cc1cn2cc(NC(=O)c3sc(N4CCNC(C)(C)C4)cc3F)cc(F)c2n1 [Compound 604] | – |
| 0.1 to 1 | < 0.1 | 1 to 10 | – | Cn1cc2ccc(NC(=O)c3sc(C4CCNCC4)cc3F)cc2n1 [Compound 655] | – |
| 0.1 to 1 | 0.1 to 1 | – | 0.1 to 1 | Cc1cn2cc(NC(=O)c3sc([C@H]4CCN[C@@H](C)C4)cc3F)cc(F)c2n1 [Compound 590] | – |
| 1 to 10 | 0.1 to 1 | > 10 | – | Cc1cn2cc(-c3sc(C(=O)NC4CCNCC4)c(Cl)c3C#N)cc(F)c2n1 [Compound 671] | – |

| SMILES | IC50 (HTT mRNA [1]; [5]) [µM] | IC50 (MYB mRNA [2]; [6]) [µM] | IC50 (SMN2 mRNA; [7]) [µM] | IC50 (Target C mRNA) [µM] | further results |
| --- | --- | --- | --- | --- | --- |
| Cc1cn2cc(NC(=O)c3sc(N4C[C@H]5CC[C@@H](C4)N5)cc3F)cc(F)c2n1 [Compound 616] | > 10 | 1 to 10 | > 10 | – | – |
